Here are results for one compound from US20090203753A1, “7-(2-amino-1-hydroxy-ethyl)-4-hydroxybenzothiazol-2(3H)-one-derivatives as beta2 adrenoreceptor agonists” (AstraZeneca AB, priority 2005, published 2009).

Each structure is given as a SMILES string.

For this assay, the target named is T1, β2 receptor (Homo sapiens, UniProt P07550).
T1 construct: endogenous in cells; host or cells: H292 cells
Nature of the assay: β2 mediated cAMP production in H292 cells, AlphaScreen cAMP detection (10 minutes with test compound). Type of assay: cell-based. The procedure:
H292 cells were grown in RPMI (Roswell Park Memorial Institute) medium containing, 10% (v/v) FBS (foetal bovine serum) and 2 mM L-glutamine. Cells were grown in 225 cm2 flasks containing 25 mL media in a humidified incubator at 37° C., 5% CO2. Cells were harvested from the flask and passaged at a 1 in 10 dilution once per week.
The media from flasks containing H292 cells was removed, rinsed with 10 mL PBS (phosphate buffered saline) and replaced with 10 mL Accutase™ cell detachment solution. Flasks were incubated for 15 minutes in a humidified incubator at 37° C., 5% CO2. The cell suspension was counted and the cells re-suspended in RPMI media (containing 10% (v/v) FBS and 2 mM L-glutamine) at 0.05×10^6 cells per mL. 5000 cells in 100 μL were added to each well of a tissue-culture-treated 96-well plate and the cells incubated overnight in a humidified incubator at 37° C., 5% CO2. The culture media was removed, washed twice with 100 μL assay buffer and replaced with 50 μL assay buffer. Cells were rested at room temperature for 20 minutes after which time 25 μL of rolipram (1.2 mM made up in assay buffer containing 2.4% (v/v) dimethylsulphoxide) was added. Cells were incubated with rolipram for 10 minutes after which time test compounds (made up as ×4 concentrated stocks in assay buffer containing 4% (v/v) dimethylsulphoxide) were added and the cells were incubated for 10 minutes at room temperature. Final rolipram concentration in the assay was 300 μM and final vehicle concentration was 1.6% (v/v) dimethylsulphoxide. The reaction was stopped by removing supernatants, washing once with 100 μL assay buffer and replacing with 50 μL lysis buffer. The cell monolayer was frozen at −80° C. for 30 minutes (or overnight).
The concentration of cAMP (cyclic adenosine monophosphate) in the cell lysate was determined using the AlphaScreen™ methodology. The frozen cell plate was thawed for 20 minutes on a plate shaker then 10 μL of the cell lysate was transferred to a 96-well white plate. 40 μL of mixed AlphaScreen™ detection beads (containing equal volumes of donor beads (pre-incubated with biotinylated cAMP in the dark for 30 minutes) and acceptor beads), was added to each well and the plate incubated at room temperature for 10 hours in the dark. The AlphaScreen™ signal was measured using an EnVision spectrophotometer (Perkin-Elmer Inc.) with the recommended manufacturer's settings. cAMP concentrations were determined by reference to a calibration curve determined in the same experiment using standard cAMP concentrations (made up in lysis buffer in a 96-well tissue-culture-treated plate and frozen/thawed alongside the test samples) and detected using the same protocol. Concentration response curves for agonists were constructed to determine both the pEC50 and Intrinsic Activity.
On the technique in general: cAMP levels reflect the balance of adenylyl cyclase and phosphodiesterase activity.

T1 sequence (P07550 whole entry): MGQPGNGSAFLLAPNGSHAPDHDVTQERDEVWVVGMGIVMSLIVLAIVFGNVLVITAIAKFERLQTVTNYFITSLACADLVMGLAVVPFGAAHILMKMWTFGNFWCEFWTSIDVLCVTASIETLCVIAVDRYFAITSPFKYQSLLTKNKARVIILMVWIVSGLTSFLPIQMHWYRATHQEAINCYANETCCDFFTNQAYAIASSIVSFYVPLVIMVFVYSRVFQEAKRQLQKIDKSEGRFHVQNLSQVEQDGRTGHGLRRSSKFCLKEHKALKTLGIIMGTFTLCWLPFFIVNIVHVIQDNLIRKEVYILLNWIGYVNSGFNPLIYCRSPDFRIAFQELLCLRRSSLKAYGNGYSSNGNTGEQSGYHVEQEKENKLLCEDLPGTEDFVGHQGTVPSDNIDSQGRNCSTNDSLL

As a reminder, the EC50 is the concentration at which the effect is half-maximal. With `CCN(CC)CCN(CCNC[C@H](O)c1ccc(O)c2[nH]c(=O)sc12)C(=O)CCOCCc1ccccc1` [Example 7, N-[2-(Diethylamino)ethyl]-N-(2-{[(2R)-2-hydroxy-2-(4-hydroxy-2-oxo-2,3-dihydro-1,3-benzothiazol-7-yl)ethyl]amino}ethyl)-3-(2-phenylethoxy)propanamide], the EC50 (cAMP, 10 minutes incubation with compound, 300 μM rolipram) is 2.51 nM. For the setting “fraction relative to the maximum activity determined for formoterol, 10 minutes incubation”, the “Intrinsic Activity” value amounted to 1.1.
